Counter-ions that a name gives are not always drawn.
Target: CGRP receptor (Homo sapiens, UniProt O60894+Q16602)
Experiment: CGRP radioligand binding assay ([125I]-CGRP displacement, SK-N-MC homogenate)
Set-up: endogenous in cells; host or cells: SK-N-MC cells (homogenate/membrane pellet)
Details: displacement of [125I]-CGRP, room temperature 2 h
Procedure: CGRP Binding Assay. Tissue Culture. SK—N-MC cells were grown at 37° C. in 5% CO2 as a monolayer in medium consisting of MEM with Earle's salts and L-glutamine (Gibco) supplemented with 10% fetal bovine serum (Gibco). Cell Pellets. The cells were rinsed twice with phosphate-buffered saline (155 mM NaCl, 3.3 mM Na2HPO4, 1.1 mM KH2PO4, pH 7.4), and incubated for 5-10 min. at 4° C. in hypotonic lysis buffer consisting of 10 mM Tris (pH 7.4) and 5 mM EDTA. The cells were transferred from plates to polypropylene tubes (16×100 mm) and homogenized using a polytron. Homogenates were centrifuged at 32,000×g for 30 min. The pellets were resuspended in cold hypotonic lysis buffer with 0.1% mammalian protease inhibitor cocktail (Sigma) and assayed for protein concentration. The SK—N-MC homogenate was then aliquoted and stored at −80° C. until needed.
Radioligand Binding Assay. The compounds of invention were solubilized and carried through serial dilutions using 100% DMSO. Aliquots from the compound serial dilutions were further diluted 25 fold into assay buffer (50 mM Tris-Cl pH 7.5, 5 mM MgCl2, 0.005% Triton X-100) and transferred (volume 50 μl) into 96 well assay plates. [^125I]-CGRP (Amersham Biosciences) was diluted to 60 pM in assay buffer and a volume of 50 μl was added to each well. SK—N-MC pellets were thawed, diluted in assay buffer with fresh 0.1% mammalian protease inhibitor cocktail (Sigma), and homogenized again. SK—N-MC homogenate (5 μg/well) was added in a volume of 100 μl. The assay plates were then incubated at room temperature for 2 h. Assays were stopped by addition of excess cold wash buffer (20 mM Tris-Cl pH 7.5, 0.1% BSA) immediately followed by filtration over glass fiber filters (Whatman GF/B) previously soaked in 0.5% PEI. Non-specific binding was defined with 1 μM beta-CGRP. Protein bound radioactivity was determined using a gamma or scintillation counter. The IC50 was defined as the concentration of a compound of invention required to displace 50% of radioligand binding.

CGRP receptor, sequence (Q16602 23-461): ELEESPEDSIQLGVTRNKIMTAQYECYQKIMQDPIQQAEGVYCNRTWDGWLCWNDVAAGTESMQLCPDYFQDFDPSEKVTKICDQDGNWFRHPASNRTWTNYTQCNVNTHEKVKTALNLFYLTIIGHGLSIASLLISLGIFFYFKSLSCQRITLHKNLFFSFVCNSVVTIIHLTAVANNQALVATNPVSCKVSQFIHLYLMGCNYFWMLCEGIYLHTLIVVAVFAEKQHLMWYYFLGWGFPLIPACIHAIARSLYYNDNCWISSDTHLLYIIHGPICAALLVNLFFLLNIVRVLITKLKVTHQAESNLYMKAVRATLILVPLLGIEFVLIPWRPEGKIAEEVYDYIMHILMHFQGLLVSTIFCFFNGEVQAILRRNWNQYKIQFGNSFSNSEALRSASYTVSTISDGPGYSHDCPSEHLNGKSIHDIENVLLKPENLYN
CGRP receptor, sequence (O60894 27-148): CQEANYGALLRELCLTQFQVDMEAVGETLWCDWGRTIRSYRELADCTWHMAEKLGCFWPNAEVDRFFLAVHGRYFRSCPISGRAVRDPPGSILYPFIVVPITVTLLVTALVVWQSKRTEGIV

| Compound | IC50 [nM] |
| --- | --- |
| O=C1Nc2ccccc2C2(CCN(C(=O)N[C@@H]3Cc4ccc5[nH]ncc5c4CN(Cc4ccc(C(F)(F)F)cc4)C3=O)CC2)N1 [Example 14, ′H-spiro[piperidine-4,4′-quinazolin]-2′(3′H)-one-1-carboxylic acid [8-oxo-9-(4-trifluoromethyl-benzyl)-3,6,7,8,9,10-hexahydro-2,3,9-triaza-(R)-cyclohepta[e]inden-7-yl]-amide] | 100 to 1000 |
| CC(C)N1Cc2c(ccc3[nH]ncc23)C[C@@H](NC(=O)N2CCC(N3Cc4ccccc4NC3=O)CC2)C1=O [Example 15, 4-(2-Oxo-1,4-dihydro-2H-quinazolin-3-yl)-piperidine-1-carboxylic acid (9-isopropyl-8-oxo-3,6,7,8,9,10-hexahydro-2,3,9-triaza-(R)-cyclohepta[e]inden-7-yl)-amide] | 10 to 100 |
| CC(C)(C)OC(=O)N1CCC(N2Cc3c(ccc4[nH]ncc34)C[C@@H](NC(=O)N3CCC(N4Cc5ccccc5NC4=O)CC3)C2=O)CC1 [Example 17] | 10 to 100 |
| O=C(N[C@@H]1Cc2ccc3[nH]ncc3c2CN(C2CCNCC2)C1=O)N1CCC(N2Cc3ccccc3NC2=O)CC1 [Example 18, 4-(2-Oxo-1,4-dihydro-2H-quinazolin-3-yl)-piperidine-1-carboxylic acid (8-oxo-9-piperidin-4-yl-3,6,7,8,9,10-hexahydro-2,3,9-triaza-(R)-cyclohepta[e]inden-7-yl)-amide] | 100 to 1000 |
| CC(C)(C)CN1Cc2c(ccc3[nH]ncc23)CC(NC(=O)N2CCC3(CC2)NC(=O)Nc2ccccc23)C1=O (stereo not drawn) [Example 23, N-[9-(2,2-dimethylpropyl)-8-oxo-3,6,7,8,9,10-hexahydroazepino[3,4-e]indazol-7-yl]-2′-oxo-2′,3′dihydro-1H, 1′H-spiro[piperidine-4,4′-quinazoline]-1-carboxamide] | 10 to 100 |
| CC(C)CN1Cc2c(ccc3[nH]ncc23)CC(NC(=O)N2CCC3(CC2)NC(=O)Nc2ccccc23)C1=O (stereo not drawn) [Example 25, N-[9-(2-methylpropyl)-8-oxo-3,6,7,8,9,10-hexahydroazepino[3,4-e]indazol-7-yl]-2′-oxo-2′,3′-dihydro-1H, 1′H-spiro[piperidine-4,4′-quinazoline]-1-carboxamide] | 100 to 1000 |
| O=C1Nc2ccccc2C2(CCN(C(=O)NC3Cc4ccc5[nH]ncc5c4CN(Cc4ccncc4)C3=O)CC2)N1 (stereo not drawn) [Example 29, N-[9-pyridin-4-ylmethyl-8-oxo-3,6,7,8,9,10-hexahydroazepino[3,4-e]indazol-7-yl]-2′-oxo-2′,3′-dihydro-1H,1′H-spiro[piperidine-4,4′-quinazoline]-1-carboxamide] | 100 to 1000 |
| CN1Cc2cc(OCc3ccccc3)ccc2CC(NC(=O)N2CCC(N3Cc4ccccc4NC3=O)CC2)C1=O (stereo not drawn) [Example 31, 4-(2-Oxo-1,4-dihydro-2H-quinazolin-3-yl)-piperidine-1-carboxylic acid (8-benzyloxy-2-methyl-3-oxo-2,3,4,5-tetrahydro-1H-benzo[c]azepin-4-yl)-amide] | > 1000 |
| CN1Cc2cc(O)ccc2CC(NC(=O)N2CCC(N3Cc4ccccc4NC3=O)CC2)C1=O (stereo not drawn) [Example 32, 4-(2-Oxo-1,4-dihydro-2H-quinazolin-3-yl)-piperidine-1-carboxylic acid (8-hydroxy-2-methyl-3-oxo-2,3,4,5-tetrahydro-1H-benzo[c]azepin-4-yl)-amide] | 100 to 1000 |
| CN1Cc2c(cc(Cl)c(O)c2Cl)CC(NC(=O)N2CCC(N3Cc4ccccc4NC3=O)CC2)C1=O (stereo not drawn) [Example 33, 4-(2-Oxo-1,4-dihydro-2H-quinazolin-3-yl)-piperidine-1-carboxylic acid (7,9-dichloro-8-hydroxy-2-methyl-3-oxo-2,3,4,5-tetrahydro-1H-benzo[c]azepin-4-yl)-amide] | > 1000 |
| CN1Cc2c(cc(Br)c(O)c2Br)CC(NC(=O)N2CCC(N3Cc4ccccc4NC3=O)CC2)C1=O (stereo not drawn) [Example 34, 4-(2-Oxo-1,4-dihydro-2H-quinazolin-3-yl)-piperidine-1-carboxylic acid (7,9-dibromo-8-hydroxy-2-methyl-3-oxo-2,3,4,5-tetrahydro-1H-benzo[c]azepin-4-yl)-amide] | 100 to 1000 |
| O=C(C[C@@H]1Cc2cc(Cl)c3[nH]ncc3c2CN(Cc2ccncc2)C1=O)N1CCC(c2cc(-c3ccccc3)[nH]n2)CC1 [Example 35, (S)-4-Chloro-7-(2-oxo-2-(4-(5-phenyl-1H-pyrazol-3-yl)piperidin-1-yl)ethyl)-9-(pyridin-4-ylmethyl)-6,7,9,10-tetrahydroazepino[3,4-e]indazol-8(3H)-one] | 10 to 100 |
| O=C(C[C@@H]1Cc2ccc3[nH]ncc3c2CN(Cc2ccccc2)C1=O)N1CCC(N2Cc3ccccc3NC2=O)CC1 [Example 38, (S)-9-Benzyl-7-(2-oxo-2-(4-(2-oxo-1,2-dihydroquinazolin-3(4H)-yl)piperidin-1-yl)ethyl)-6,7,9,10-tetrahydroazepino[3,4-e]indazol-8(3H)-one] | 100 to 1000 |
| CC(C)(C)CN1Cc2c(cc(Cl)c3[nH]ncc23)C[C@@H](CC(=O)N2CCC(c3nc4ccccc4[nH]c3=O)CC2)C1=O [Example 48, (S)-4-Chloro-9-neopentyl-7-(2-oxo-2-(4-(3-oxo-3,4-dihydroquinoxalin-2-yl)piperidin-1-yl)ethyl)-6,7,9,10-tetrahydroazepino[3,4-e]indazol-8(3H)-one] | 10 to 100 |
| O=C(C[C@@H]1Cc2cc(Cl)c3[nH]ncc3c2CN(Cc2ccncc2)C1=O)N1CCC(c2cc3cccc(F)c3[nH]c2=O)CC1 [Example 51, (S)-4-Chloro-7-(2-(4-(8-fluoro-2-oxo-1,2-dihydroquinolin-3-yl)piperidin-1-yl)-2-oxoethyl)-9-(pyridin-4-ylmethyl)-6,7,9,10-tetrahydroazepino[3,4-e]indazol-8(3H)-one] | 0.1 to 10 |
| Cc1cc2c(cc1N)CN(Cc1ccccc1)C(=O)[C@H](NC(=O)N1CCC(N3Cc4ccccc4NC3=O)CC1)C2 [Example 55, (R)-N-(8-Amino-2-benzyl-7-methyl-3-oxo-2,3,4,5-tetrahydro-1H-benzo[c]azepin-4-yl)-4-(2-oxo-1,2-dihydroquinazolin-3(4H)-yl)piperidine-1-carboxamide trifluoroacetate] | 100 to 1000 |
| Cc1c(N)ccc2c1CN(Cc1ccccc1)C(=O)[C@H](NC(=O)N1CCC(N3Cc4ccccc4NC3=O)CC1)C2 [Example 56, trifluoroacetate] | 100 to 1000 |
| O=C(N[C@@H]1Cc2ccc3[nH]ncc3c2CN(C2CCNC2)C1=O)N1CCC(N2Cc3ccccc3NC2=O)CC1 (stereo partly drawn) [Example 63, 4-(2-oxo-1,2-dihydroquinazolin-3(4H)-yl)-N-((R)-8-oxo-9-(pyrrolidin-3-yl)-3,6,7,8,9,10-hexahydroazepino[3,4-e]indazol-7-yl)piperidine-1-carboxamide] | 100 to 1000 |
| CC(C)(C)CN1Cc2c(ccc3[nH]ncc23)C[C@@H](CCN2CCC(N3Cc4ccccc4NC3=O)CC2)C1=O [Example 64, (S)-9-neopentyl-7-(2-(4-(2-oxo-1,2-dihydroquinazolin-3(4H)-yl)piperidin-1-yl)ethyl)-6,7,9,10-tetrahydroazepino[3,4-e]indazol-8(3H)-one] | > 1000 |
| CC(C)(C)CN1Cc2c(ccc3[nH]ncc23)C[C@@H](NC(=O)N2CCC(c3cc(-c4ccccc4)no3)CC2)C1=O [Example 65, (R)-N-(9-neopentyl-8-oxo-3,6,7,8,9,10-hexahydroazepino[3,4-e]indazol-7-yl)-4-(3-phenylisoxazol-5-yl)piperidine-1-carboxamide] | > 1000 |
| CC(C)(C)CN1Cc2c(ccc3[nH]ncc23)C[C@H](CC(=O)N2CCC(N3Cc4ccccc4NC3=O)CC2)C1=O [Example 66, 9-(2,2-dimethyl-propyl)-7-(R)-{2-oxo-2-[4-(2-oxo-1,4-dihydro-2H-quinazolin-3-yl)-piperidin-1-yl]-ethyl}-6,7,9,10-tetrahydro-3H-2,3,9-triaza-cyclohepta[e]inden-8-one] | 10 to 100 |
| CC(C)(C)CN1Cc2c(ccc3[nH]ncc23)C[C@@H](NC(=O)N2CCC(C3Cc4ccccc4NC3=O)CC2)C1=O (stereo partly drawn) [Example 67, N-((R)-9-neopentyl-8-oxo-3,6,7,8,9,10-hexahydroazepino[3,4-e]indazol-7-yl)-4-(2-oxo-1,2,3,4-tetrahydroquinolin-3-yl)piperidine-1-carboxamide] | 10 to 100 |
| CC(C)(C)CN1Cc2c(ccc3[nH]ncc23)C[C@@H](NC(=O)N2CCN(C3Cc4ccccc4NC3=O)CC2)C1=O (stereo partly drawn) [Example 68, N-((R)-9-Neopentyl-8-oxo-3,6,7,8,9,10-hexahydroazepino[3,4-e]indazol-7-yl)-4-(2-oxo-1,2,3,4-tetrahydroquinolin-3-yl)piperazine-1-carboxamide] | 100 to 1000 |
| CC(C)(C)CN1Cc2c(ccc3[nH]ncc23)C[C@@H](NC(=O)N2CCC(N3Cc4ccccc4CC3=O)CC2)C1=O [Example 69, (R)-N-(9-Neopentyl-8-oxo-3,6,7,8,9,10-hexahydroazepino[3,4-e]indazol-7-yl)-4-(3-oxo-3,4-dihydroisoquinolin-2(1H)-yl)piperidine-1-carboxamide] | 10 to 100 |
